Reference: patent US7846719B2, “Express system of soluble glutaminyl cyclase” (Academia Sinica, priority 2006, dated 2010)
Read-outs that look alike come from different tables or passages of the source. Peptide text beside a SMILES is read from it.

How the values were obtained:
Human QC [1] = target: T1, Human QC (Homo sapiens, UniProt Q16769); experiment: QC inhibition test, spectrophotometric, 96-well microplate; type: biochemical; parameters: corresponding to the coding region of human QC (Ala33-Leu361) was re-amplified and inserted into a pET-43.1a expression vector; Nus fusion (pET-43.1a construct) or thioredoxin fusion (pET-32a construct) (N, cleaved yes); (His)6 (pET-43.1a construct: N- and C-terminal sites; pET-32a construct: 5'-end, upstream of the Factor Xa site); made in house; host or cells: E. coli BL21 (DE3); conditions: inhibitor 140 μM, substrate H-Gln-Gln-OH 0.55 mM, human QC 28.8 nM, preincubation 5 to 10 min; for remaining activity at 140 µM: read-out: QC activity (% of control)
Description: Reactions were started by the addition of QC (0.04 to 2.5 μg), and the activity was monitored by recording the decrease of NADH absorbance at 340 nm.
For an inhibition test, the reaction composition was the same as described above, except for the addition of the inhibitor compound. Prior to the spectrophotometric analysis on a 96-well microplate, the enzyme was incubated with the inhibitor for 5 to 10 min.
Target sequence in this assay (Q16769 33-361): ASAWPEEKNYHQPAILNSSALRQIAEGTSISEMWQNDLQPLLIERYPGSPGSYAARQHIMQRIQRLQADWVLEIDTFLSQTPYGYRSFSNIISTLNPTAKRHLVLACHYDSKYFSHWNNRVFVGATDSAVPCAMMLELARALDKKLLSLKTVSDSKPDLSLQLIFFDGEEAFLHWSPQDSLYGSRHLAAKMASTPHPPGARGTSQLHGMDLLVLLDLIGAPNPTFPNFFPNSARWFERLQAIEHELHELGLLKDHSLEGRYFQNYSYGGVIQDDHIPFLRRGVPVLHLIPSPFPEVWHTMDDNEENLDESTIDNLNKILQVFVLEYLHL

Human QC [2] = target: T1, Human QC; parameters: host or cells: Pichia pastoris; conditions: substrate of human QC expressed in Pichia pastoris cell; reported by Schilling et al.; cited from earlier work
Target sequence in this assay (Q16769 29-361): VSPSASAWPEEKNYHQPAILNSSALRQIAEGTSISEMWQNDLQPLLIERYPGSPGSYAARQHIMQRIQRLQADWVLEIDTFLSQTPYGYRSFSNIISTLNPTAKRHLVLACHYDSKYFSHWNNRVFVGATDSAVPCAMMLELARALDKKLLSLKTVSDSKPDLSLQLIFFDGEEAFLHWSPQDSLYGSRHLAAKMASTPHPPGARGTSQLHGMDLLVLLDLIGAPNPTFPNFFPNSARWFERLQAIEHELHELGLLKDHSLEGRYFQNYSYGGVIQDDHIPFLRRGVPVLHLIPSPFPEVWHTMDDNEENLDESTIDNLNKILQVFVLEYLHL

Human QC [3] = target: T1, Human QC; parameters: host or cells: Pichia pastoris; conditions: substrate of human QC expressed in Drosophila S2 cell; reported by Booth et al.; cited from earlier work
Target sequence in this assay (Q16769 29-361): as above

Human QC [4] = target: T1, Human QC; experiment: Spectrophotometric QC activity assay (glutamate dehydrogenase coupled), human QC expressed in E. coli; type: biochemical; parameters: corresponding to the coding region of human QC (Ala33-Leu361) was re-amplified and inserted into a pET-43.1a expression vector; Nus fusion (pET-43.1a construct) or thioredoxin fusion (pET-32a construct) (N, cleaved yes); (His)6 (pET-43.1a construct: N- and C-terminal sites; pET-32a construct: 5'-end, upstream of the Factor Xa site); made in house; host or cells: E. coli BL21 (DE3); conditions: substrate of human QC expressed in Escherichia coli cell, mean ± SD (n = 2)
Description: For the spectrophotometric method, the 500 μl assay solutions consisted of 15 units glutamate dehydrogenase, 12 mM α-ketoglutarate, 0.6 mM NADH (a reduced form of NAD (nicotinamide adenine dinucleotide)) and varying concentrations of synthetic substrate in 50 mM Tris-HCl, pH 8.0. Reactions were started by the addition of QC (0.04 to 2.5 μg), and the activity was monitored by recording the decrease of NADH absorbance at 340 nm.
The Km and kcat values determined for the recombinant protein of the invention were very similar to the human QC expressed in Drosophila S2 cells, as evident in Table 1.
Target sequence in this assay (Q16769 33-361): as the sequence (Q16769 33-361) above

Human QC [5] = target: T1, Human QC; experiment: QC activity analysis by reverse-phase HPLC on [Gln1]-TRH; type: biochemical; parameters: corresponding to the coding region of human QC (Ala33-Leu361) was re-amplified and inserted into a pET-43.1a expression vector; Nus fusion (pET-43.1a construct) or thioredoxin fusion (pET-32a construct) (N, cleaved yes); (His)6 (pET-43.1a construct: N- and C-terminal sites; pET-32a construct: 5'-end, upstream of the Factor Xa site); made in house; host or cells: E. coli BL21 (DE3); conditions: 50 mM Tris-HCl
Description: QC activity was analyzed based on reverse-phase HPLC and spectrophotometric measurement. […] A reaction without addition of human QC was provided as a control in the assay. Subsequently, a 20 μl aliquot of the mixture was subjected to HPLC analysis on a Waters liquid chromatograph using a C18 column (Waters, Milford, Mass.). The bound materials were eluted by a three-step linear gradient of methanol containing 0.1% trifluoroacetic acid (TFA). The eluates were detected at 214 nm and identified by mass spectrometry and N-terminal sequencing.
The synthetic [Gln^1]-TRH (Gln-His-Pro), one of the putative physiological substrates of human QC, was used to analyze the QC activity of the recombinant protein based on the HPLC elution profile of the peptide.
Target sequence in this assay (Q16769 33-361): as above

Compound: c1ccc(Cn2ccnc2)cc1 [1-benzylimidazole]
- remaining activity at 140 µM (Human QC [1]): 41.5%

Compound: Nc1n[nH]c(N)n1 [3,5-diamino-1,2,4-triazole]
- remaining activity at 140 µM (Human QC [1]): 89.9%

Compound: CCOC(=O)Cc1nnn[nH]1 [ethyl 1H-tetrazole-5-acetate]
- remaining activity at 140 µM (Human QC [1]): 90.6%

Compound: c1ccc(N=c2[n-][n+](-c3ccccc3)cn2-c2ccccc2)cc1 [nitron]
- QC activity (% of control) (Human QC [1]): 61.4 % of control

Compound: CC(C)(C)OC(=O)[C@@H](N)CCC(N)=O [Gln-t-butyl ester, H-Gln-t-butyl ester]
- Km (Human QC [2]): 1200 ± 100 µM
- kcat (Human QC [2]): 6.7 ± 0.2 s⁻¹
- Km (Human QC [3]): 6.7 ± 2 mM
- kcat (Human QC [3]): 16.0 s⁻¹
- kcat (Human QC [4]): 20.9 ± 2.1 s⁻¹
- Km (Human QC [4]; 50 mM Tris-HCl, pH 8.0): 4.1 ± 0.6 mM

Compound: [Gln^1]-TRH (Gln-His-Pro)
- Turnover in the absence of human QC (Human QC [5]; 5 days, pH 8.0, at 25° C., no enzyme): less than 20%
- Conversion into [pGlu1]-TRH by human QC (Human QC [5]; within 20 minutes, 0.6 μM human QC, 14.8 mM substrate, pH 8.0, 25° C.): almost completely converted

Compound: CSc1nnn[nH]1 [5-(methylthio)-1H-tetrazole]
- remaining activity at 140 µM (Human QC [1]): 89.1%

Compound: NC(=O)CC[C@H](NC(=O)[C@@H](N)CCC(N)=O)C(=O)O [Gln-Gln, H-Gln-Gln-OH] (H-Gln-Gln-OH)
- Km (Human QC [2]): 100 µM
- kcat (Human QC [2]): 20.7 ± 0.2 s⁻¹
- Km (Human QC [3]): 0.7 ± 0.4 mM
- kcat (Human QC [3]): 10.0 s⁻¹

Compound: Nc1nc[nH]n1 [3-amino-1,2,4-triazole]
- remaining activity at 140 µM (Human QC [1]): 84.5%

Compound: O=c1[nH][nH]c(=O)n1-c1ccccc1 [4-phenyl-1,2,4-triazoleine-3,5-dione]
- remaining activity at 140 µM (Human QC [1]): 78.2%
